Data reported in patent publication US20170224749A1, “VAGINAL COMPOSITION FOR THE TREATMENT OF UROGENITAL INFECTIONS” (HPRD - HEALTH PRODUCTS RESEARCH AND DEVELOPMENT LDA, priority 2014, published 2017).

Key:
[1] = system: G. vaginalis G19; assay: anti-Gardnerella activity of film dispersions, micromethod (CSLI M45); type: cell-based, Gardnerella vaginalis; set-up: key: −: absence of bacterial growth; +: presence; details: lactic acid used for the preparation of formulations (control)
Method: (§1) In an embodiment, the antibacterial activity of chitosan films was tested against two Gardnerella vaginalis clinical strains, this being the pathogen most frequently associated with vaginal bacteriosis. […] The antibacterial activity was tested according to the CSLI M45 standard. Controls were performed with VFS and the lactic acid used for the preparation of formulations, as well as growth controls of strains and sterility of the culture medium used. All tests were performed in duplicate. Plates were observed concerning the presence or absence of bacterial growth after 48 h of growth at 37° C. Table 3 represents the results obtained indicating the marked activity of the film since no bacterial growth occurs for 1:4 dilution (second sequential dilution) of the film dispersion in 3 mL of water and VFS. […] The test was performed after incubation of the wells containing the tissue with maintenance medium (commercial), at 37° C. with 5% CO2 atmosphere, in accordance with the recommendations of the supplier. After the incubation period, 17 mg of film were placed over the tissue in each well and added of […] of PBS to allow for dispersion. After the 12 h incubation period, cellular viability was assessed by the MTT test (n=2 wells) and histological analysis was performed. […] Since this formulations was developed to treat an infection, being toxic to bacteria, it wouldn't be expected to totally innocuous for the human tissue. Biocompatibility of chitosan with human tissue has been described and the lactic acid used in this formulation was selected due to the natural occurrence in the vagina. On the other hand, the fact that this formulation is intended for short term treatments, in an altered vaginal environment due to the presence of pathogens, can influence the final effect of the formulation in the tissue of the host.

[2] = system: G. vaginalis G71; assay: as above; type: cell-based, Gardnerella vaginalis; set-up: key: −: absence of bacterial growth; +: presence; details: lactic acid used for the preparation of formulations (control)
Method: as §1

Measured: bacterial growth

CC(O)C(=O)O (stereo not shown) [Lactic acid, lactic acid]
−: [1]; dilution 1:2 | [1]; dilution 1:4 | [2]; dilution 1:2 | [2]; dilution 1:4
